In patent US20190382827A1, “USE OF MICROBIAL METABOLITES FOR TREATING DISEASES” (Yeda Research and Development Co. Ltd., priority 2015, published 2019):
Entries after “also recorded” stand apart in the source; their conditions may differ.

Test system: DSS colitis
Assay: DSS colitis
Format: in vivo, mouse
Protocol: For IL-18 rescue experiments, recombinant IL-18 (MBL, Cat#B004-2) was injected intraperitoneally at a concentration of 1 μg per mouse for 5 days, and not injected for 2 days prior to DSS treatment. IL-18 injection to Swiss Webster germ-free mice and Nlrp6^−/− mice was performed twice a day for 3 days, while the mice were kept sterile using a cage-autonomous system (Hecht et al., 2014).
Mice were treated with 1.5% (w/v) DSS (M.W.=36,000-50,000 Da; MP Biomedicals) in their drinking water for 7 days followed by regular access to water. The animals were weighed daily and monitored for signs of distress as well as rectal bleeding.
For DSS rescue experiments, mice were receiving taurine in the drinking water prior to DSS treatment in a concentration of 100 mg/ml for 14 days.
Colonoscopy was performed using a high-resolution mouse video endoscopic system (Carl Storz, Tuttlingen, Germany). The severity of colitis was blindly scored using MEICS (Murine Endoscopic Index of Colitis Severity), which is based on five parameters: granularity of mucosal surface; vascular pattern; translucency of the colon mucosa; visible fibrin; and stool consistency (Becker et al., 2006).
On the day of the assay, 4 kDa fluorescein isothiocyanate (FITC)-dextran was dissolved in phosphate buffered saline (PBS) to a concentration of 80 mg ml^−1. Mice were fasted for 4 hours prior to gavage with 150 μl dextran. Mice were anesthetized 3 hours following gavage and blood was collected, centrifuged at 1,000×g for 12 min at 4° C. Serum was collected and fluorescence was quantified at an excitation wavelength of 485 nm and 535 nm emission wavelength.
DNA was extracted from liver samples (using MoBio PowerSoil kit). DNA concentration was calculated using a standard curve of known DNA concentrations from E. coli K12. 16S qPCR using primers identifying different regions of the V6 16S gene was performed using Kappa SYBR fast mix.
Absolute number of bacteria in the samples was then approximated as DNA amount in a sample/DNA molecule mass of bacteria.

[1] = WT mice, DSS colitis, taurine in drinking water
[2] = WT mice, taurine in drinking water for two weeks, then DSS colitis

NCCc1c[nH]cn1 [histamine]
exacerbation of DSS colitis (WT mice concomitantly treated with antibiotics): prevented | DSS colitis (WT mice, histamine treatment): exacerbated

NCCS(=O)(=O)O [taurine]
beneficial effects on DSS colitis (GF WT mice): failed to have beneficial effects | beneficial effects on DSS colitis (WT mice treated with broad-spectrum antibiotics): failed to have beneficial effects | hepatic bacterial load [1]: decreased | systemic FITC-dextran influx [1]: reduced | epithelial tight junction integrity (WT mice, DSS colitis, taurine in drinking water, ZO-1 staining): sustained | beneficial effects on DSS colitis (WT mice, taurine administration stopped before induction of DSS colitis): beneficial effects were also observed | colitis severity [2]: ameliorated; also recorded: reduced | weight loss [2]: improved | survival (WT mice, taurine in drinking water, DSS): enhanced | beneficial effects on DSS colitis (mice lacking either ASC or NLRP6): failed to have beneficial effects
